{
  "source": "patent US9198909B1",
  "about": "“Materials and methods for inhibiting mamalian S-nitrosoglutathione reductase” (Indiana University Research and Technology Corporation, priority 2007, dated 2015)",
  "test_system": "mouse aorta segments",
  "experiment": "Wire myography, relaxation of aortic rings",
  "experimental": "Referring now to FIG. 5, mouse aorta segments were equilibrated in oxygenated PSS (95% O2 and 5% CO2) at 37° C. Following equilibration, 1 μM phenylephrine was added to each ring for submaximal contraction. After stabilization, increasing concentrations (10−9 M to 10−4 M) of either compound 8 or sodium nitroprusside (SNP) was added to the rings and the tone of the rings determined (B) Inhibition of compound 8 induced relaxation of aortal rings by nitric oxide synthase inhibitor, L-NAME. To pre-equilibrated and submaximally contracted aortal rings with phenylephrine (1 micromolar), LNAME (500 micromolar) was added to the bath and allowed to incubate for 30 minutes. […] Each experiment was performed using two rings from three different mice and the mean (±SEM) for each response determined.\nMice were anesthetized with diethyl ether. A thoracotomy was performed to expose thoracic and abdominal aorta. A 25 gauge syringe was inserted into the apex of left ventricle and perfused free of blood with oxygenated Krebs Henseleit buffer. The right atrium was cut to provide an exit for blood. The aorta was removed and cleaned of fat and adventitia. The aorta was cut into 2-mm-long segments and mounted on a four-channel wire myograph (AD Instruments). Vessel rings were maintained in 10-ml organ baths with oxygenated PSS (95% O2 and 5% CO2) at 37° C. Rings were allowed to equilibrate for 80 minutes with the buffer in each organ bath changed every 20 min. One gram pretension was placed on each aortic ring (appropriate starting tension for optimal vasomotor function as determined in previous experiments). An eight-channel octal bridge (Powerlab) and data-acquisition software (Chart version 5.2.2) were used to record all force measurements. After equilibration for 80 min, 1 μM 27 phenylephrine was added to each ring for submaximal contraction. After stabilization, either compound 8 or sodium nitroprusside (SNP) was added to the rings and the tone of the rings determined. For the determination of SNP and ACh dose-response relationships, aortic rings were precontracted with 10−6 M PE, and SNP or compound 8 was then added in increasing concentrations from 10−9 M to 10−4 M. In a subset of experiments, L-NAME was added (500 μM final) to the bath and allowed to incubate for 30 minutes. After 30 minutes, compound 8 was added and the tone of the rings determined as described above.",
  "key": {"[1]": {"details": "direct comparison with sodium nitroprusside"}},
  "data": [
    {"compound": "N#Cc1ccccc1CSc1nc2ccsc2c(=O)n1Cc1ccc(C(=O)O)cc1", "note": "[Compound 8]", "values": [
      {"measurement": "time to begin relaxation", "value": "around 3 minutes"},
      {"measurement": "duration of sustained vessel relaxation", "setting": "50 μM", "value": "up to 2 hours"},
      {"measurement": "relaxation of the vessels", "setting": "50 μM", "value": "completely relaxed"},
      {"measurement": "time to complete relaxation", "setting": "50 μM", "value": "≤ 15", "unit": "min"},
      {"measurement": "inhibition of vasorelaxation by L-NAME preincubation", "setting": "500 μM L-NAME for 30 minutes, then 50 μM compound 8", "value": "roughly 58%"},
      {"measurement": "duration of the effect compared with SNP", "setting": "[1]", "value": "much longer than with SNP"},
      {"measurement": "potency at relaxing vascular smooth muscle compared with SNP", "setting": "[1]", "value": "less potent than SNP"},
      {"measurement": "EC50", "setting": "rings precontracted with 1 μM phenylephrine, read-out: EC50 of vessel relaxation", "value": 5, "unit": "µM"}
    ]}
  ]
}
